# In PubChem BioAssay AID488985 (Sanford-Burnham Center for Chemical Genomics, 2010):
# Calls of active or inactive are those of the source.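 The calls were made as follows: active = mean EC50 below 10 µM; inactive = the rest.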
# Target: Apelin receptor (Homo sapiens) (UniProt P35414)
# Experiment: apelin receptor activator analogs – cell-based, luminescence, set 2, SAR follow-up (AID 488985)
# Details: CHO-K1 AGTRL-1 PathHunter beta-arrestin
# Chain of Apelin receptor (Homo sapiens) (P35414 whole entry, looked up): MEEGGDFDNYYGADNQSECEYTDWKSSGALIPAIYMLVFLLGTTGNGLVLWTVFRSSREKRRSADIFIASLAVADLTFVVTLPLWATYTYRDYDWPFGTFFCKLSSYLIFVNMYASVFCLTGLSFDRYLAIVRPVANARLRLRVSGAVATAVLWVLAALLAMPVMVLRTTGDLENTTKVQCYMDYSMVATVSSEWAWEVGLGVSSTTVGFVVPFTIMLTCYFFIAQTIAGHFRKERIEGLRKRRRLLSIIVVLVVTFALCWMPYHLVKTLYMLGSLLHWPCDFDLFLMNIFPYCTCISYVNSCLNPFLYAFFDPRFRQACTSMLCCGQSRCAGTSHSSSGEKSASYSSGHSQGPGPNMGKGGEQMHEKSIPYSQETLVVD
row,SMILES,EC50
1,Cc1cc(C)n2nc3nc(N4CCCCC4)nc(-c4ccccc4)c3c2n1,> 79 µM (inactive)
2,CCc1nnc(NC(=O)CSc2nc3cccnc3n2C2CCCCC2)s1,inactive
3,CCN1C(c2ccccc2)=C(c2ccccc2)S/C1=C\C=C1/SC(=S)N(C)C1=O,4.42 µM
4,CCN1C(=O)/C(=C/C=C2/Sc3ccccc3N2CC)SC1=S,> 79 µM (inactive)
5,CCOc1cc2[nH]c(=S)n(CCN3CCC(C)CC3)c(=O)c2cc1OCC,> 79 µM (inactive)
6,CC1=CC(=O)C(C(C)(C)C)=C/C1=N/OS(=O)(=O)c1ccccc1,4.2 µM
7,CCN1C(=O)/C(=C/C=C2/SC(c3ccccc3)=C(c3ccccc3)N2CC)SC1=S,> 79 µM (inactive)
8,CCCCN(C)CCn1c(=S)[nH]c2cc(OCC)c(OCC)cc2c1=O,inactive
9,CC1=C/C(=N/OS(=O)(=O)c2ccccc2)C(C(C)C)=CC1=O,11.9 µM

# The next lines start with the values.
row,EC50,SMILES
1,6.07 µM,CC1=CC(=NOS(=O)(=O)c2ccccc2)C(C)=CC1=O
2,> 79 µM (inactive),CCOc1ccc(S(=O)(=O)Nc2nc(-c3ccccc3)cs2)cc1
3,inactive,CCOc1cc2[nH]c(=S)n(CCN3CCCCC3CC)c(=O)c2cc1OCC (configuration not stated)
4,13.1 µM,CC(C)C1=CC(=NOS(=O)(=O)c2ccccc2)C=C(C(C)C)C1=O
5,> 79 µM (inactive),CC1=CC(=O)C=C/C1=N/OS(=O)(=O)c1ccc(C)cc1
6,> 79 µM (inactive),CCc1nnc(NC(=O)CSc2nc3cccnc3n2Cc2ccccc2)s1
7,inactive,CCOc1cc2[nH]c(=S)n(CCCC(=O)NCc3ccccn3)c(=O)c2cc1OCC
8,> 79 µM (inactive),Cc1cc(O)c(C2CCCCC2)cc1N=O
